These results are taken from US11479551B2, “MTA-cooperative PRMT5 inhibitors” (Mirati Therapeutics, Inc., priority 2019, dated 2022).

Structures are written as SMILES. Like-named read-outs stand apart in the source and are kept apart here.

In experiment [1] the test system is PRMT5-dependent Symmetric Di-methyl Arginine signal in HCT116 homozygous MTAP knockout cells. In words: SYM11 In-Cell Western, HCT116 MTAP knockout. It counts as cell-based. The procedure: (§1) 1. HCT116 MTAP Knockout Model
(§2) HCT116 cells were genetically engineered to knock out the function of both MTAP alleles using a CRISPR/Cas9 system and an sgRNA targeting the MTAP gene. Following Cas9/MTAP sgRNA transduction, clones were screened to confirm that each allele of the MTAP gene had been inactivated (i.e., homozygous MTAP knock out) creating an MTAP-deficient cell.
(§3) Control samples were analyzed in parallel.
Briefly, on Day 0, 2,000 HCT116 parental or HCT116 homozygous MTAP knockout cells were seeded in 96 well plates in McCoy's 5A supplemented with 10% fetal bovine serum and pen/strep and the cells were incubated overnight at 37° C. plus 5% CO2. The following day, cells were treated with DMSO vehicle control or a dose response of PRMT5 inhibitors, and incubated at 37° C. plus 5% CO^2 for four days.
After 4 days of treatment, the cells were fixed by adding 50 μl of 4% paraformaldehyde solution to each well and the cells were incubated for 20 min at room temperature. The paraformaldehyde solution was removed, 150 μl of ice-cold methanol was added and the plate was placed −20° C. for 10 minutes. The methanol was removed, 150 μl of Odyssey Blocking buffer+0.05% Tween20 was added and the plate was incubated at room temperature with shaking for one hour.
The primary SYM11 antibody solution was removed by aspiration and the wells were washed three consecutive times with phosphate buffered saline containing 0.1% Tween-20 (PBST).
The secondary antibody solution was removed by aspiration and the wells were washed three consecutive times with PB ST.
The SYM11 signal and the DRAQ5 signal were quantified using a Li-Cor Odyssey machine reading at […], respectively. The SYM11/DRAQ5 ratio was used to calculate the inhibition of Symmetric Dimethyl Arginine as percent of DMSO control.

Experiment [2] concerns HCT116 homozygous MTAP knockout cells. In words: Proliferation assay (CellTiter-Glo, 10 days of treatment), HCT116 MTAP knockout. It counts as cell-based. The following applies: read-out: Proliferation HCT116MTAP_KO IC50. Here is the method:
as §1, §2, §3
Briefly, on Day 0, 250 HCT116 parental or HCT116 homozygous MTAP knockout cell were seeded in 96 well plates in McCoy's 5A supplemented with 10% fetal bovine serum and pen/strep and the cells were incubated overnight at 37° C. plus 5% CO2.
The following day, cells were treated with DMSO vehicle control or a dose response of PRMT5 inhibitors and incubated at 37 C plus 5% CO2 for five days. On Day 6, the cells were trypsinized and split 1:10 into new 96-well plates with fresh medium containing the same concentration of PRMT5 inhibitor and incubated for an additional 5 days at 37° C. plus 5% CO^2.
On Day 11, the viability of the cells was measured using a CTG assay kit (CellTiter-Glo; Promega cat.no G7573) in accordance with the manufacturer's instructions. The IC50 values for each compound after 10 days of treatment were calculated using GraphPad PRISM software.
(Cellular ATP, detected with luciferase, serves as a proxy for viable cell number.)

Where [3] appears, read: Homo sapiens, HCT-116, 96 h, HCT116 homozygous MTAP knockout cells, 4 days of treatment, SYM11/DRAQ5 ratio; read-out: In-cell-Western (SYM11) HCT116 MTAP_KO IC50.

`Cn1ncc(-c2cc(C(F)(F)F)c3c(=O)[nH]nc(CN)c3c2)c1-c1ccc2ccccc2c1C#N` [Example 10-13, 2-(4-(4-(aminomethyl)-1-oxo-8-(trifluoromethyl)-1,2-dihydrophthalazin-6-yl)-1-methyl-1H-pyrazol-5-yl)-1-naphthonitrile]: the IC50 in experiment [1] (setting [3]) amounted to 0.016 µM; in experiment [2] (Homo sapiens, HCT-116, 240 h), 0.085 µM.

For `Cc1cc(OC2CC2)c(C#N)c(-c2c(-c3ccc4c(=O)[nH]nc(CN)c4c3)cnn2C)c1` [Example 12-18, 2-(4-(4-(aminomethyl)-1-oxo-1,2-dihydrophthalazin-6-yl)-1-methyl-1H-pyrazol-5-yl)-6-cyclopropoxy-4-methylbenzonitrile], the IC50 in experiment [1] (setting [3]) came out at 0.01 µM; in experiment [2] (Homo sapiens, HCT-116, 240 h), 0.104 µM.

In the case of `CCOc1cc2ccccc2c(C#N)c1-c1c(-c2cc(OCC)c3c(=O)[nH]nc(CN)c3c2)cnn1C` [Example 13-3, 2-[4-[4-(aminomethyl)-8-ethoxy-1-oxo-2H-phthalazin-6-yl]-2-methyl-pyrazol-3-yl]-3-ethoxy-naphthalene-1-carbonitrile], the IC50 in experiment [1] (setting [3]) amounted to 0.298 µM; in experiment [2] (Homo sapiens, HCT-116, 240 h) it was 0.565 µM.

Turning to `COc1cc2ccccc2c(C#N)c1-c1c(-c2ccc3c(=O)[nH]nc(CN)c3c2)cnn1C` [Example 12-16, 2-[4-[4-(aminomethyl)-1-oxo-2H-phthalazin-6-yl]-2-methyl-pyrazol-3-yl]-3-methoxy-naphthalene-1-carbonitrile], the IC50 in experiment [1] (HCT116 homozygous MTAP knockout cells, 4 days of treatment, SYM11/DRAQ5 ratio; read-out: In-cell-Western (SYM11) HCT116 MTAP_KO IC50) came to 0.0004 µM; in experiment [1] (setting [3]) it was 0.0005 µM; in experiment [2] (Homo sapiens, HCT-116, 240 h), 0.075 µM; in experiment [2], 0.073 µM.

`Cn1ncc(-c2ccc3c(=O)[nH]nc(CN)c3c2)c1-c1cccc2cncn12` [Example 4-233, 4-(aminomethyl)-6-(5-(imidazo[1,5-a]pyridin-5-yl)-1-methyl-1H-pyrazol-4-yl)phthalazin-1(2H)-one]: the IC50 in experiment [1] (setting [3]) is greater than 1 µM; in experiment [2] (Homo sapiens, HCT-116, 240 h), 4.73 µM.

As to `Cn1ncc(-c2cc(Cl)c3c(=O)[nH]nc(CN)c3c2)c1-c1c(F)cc2ccccc2c1C#N` [Example 10-17, 2-(4-(4-(aminomethyl)-8-chloro-1-oxo-1,2-dihydrophthalazin-6-yl)-1-methyl-1H-pyrazol-5-yl)-3-fluoro-1-naphthonitrile], the IC50 amounted to 0.021 µM in experiment [1] (setting [3]) and 0.021 µM in experiment [2] (Homo sapiens, HCT-116, 240 h).

`Cn1nc(Cl)c(-c2c(-c3ccc4c(=O)[nH]nc(CN)c4c3)cnn2C)c1C#N` [Example 4-219, 4-(4-(aminomethyl)-1-oxo-1,2-dihydrophthalazin-6-yl)-3′-chloro-1′,2-dimethyl-1′H,2H-[3,4′-bipyrazole]-5′-carbonitrile]: the IC50 in experiment [1] (setting [3]) is greater than 1 µM; in experiment [2] (Homo sapiens, HCT-116, 240 h), 3.61 µM.

As for `Cc1c(F)c(-c2c(-c3ccc4c(=O)[nH]nc(CN)c4c3)cnn2C)c(C#N)c2ccccc12` [Example 4-245, 2-(4-(4-(aminomethyl)-1-oxo-1,2-dihydrophthalazin-6-yl)-1-methyl-1H-pyrazol-5-yl)-3-fluoro-4-methyl-1-naphthonitrile], the IC50 came out at 0.007 µM in experiment [1] (setting [3]) and 0.008 µM in experiment [2] (Homo sapiens, HCT-116, 240 h).

As to `Cc1c(-c2c(-c3ccc4c(=O)[nH]nc(CN)c4c3)cnn2C)ccc2ccccc12` [Example 12-12, 4-(aminomethyl)-6-[1-methyl-5-(1-methyl-2-naphthyl)pyrazol-4-yl]-2H-phthalazin-1-one], the IC50 was 0.026 µM in experiment [1] (setting [3]) and 0.24 µM in experiment [2] (Homo sapiens, HCT-116, 240 h).

For `Cc1cnc2ccc(-c3c(-c4ccc5c(=O)[nH]nc(CN)c5c4)cnn3C)c(C#N)c2c1` [Example 12-17, 6-[4-[4-(aminomethyl)-1-oxo-2H-phthalazin-6-yl]-2-methyl-pyrazol-3-yl]-3-methyl-quinoline-5-carbonitrile], the IC50 worked out at 0.01 µM in experiment [1] (setting [3]) and 0.085 µM in experiment [2] (Homo sapiens, HCT-116, 240 h).

As for `Cn1ncc(-c2ccc3c(=O)[nH]nc(CN)c3c2)c1-c1ccc2ncsc2c1C#N` [Example 4-237, 6-(4-(4-(aminomethyl)-1-oxo-1,2-dihydrophthalazin-6-yl)-1-methyl-1H-pyrazol-5-yl)benzo[d]thiazole-7-carbonitrile], the IC50 in experiment [1] (setting [3]) is 0.136 µM; in experiment [2] (Homo sapiens, HCT-116, 240 h) it was 1.04 µM.

On to `Cn1ncc(-c2ccc3c(=O)[nH]nc(CN)c3c2)c1-c1c(F)c(Cl)cc(OC2CC2)c1C#N` (single isomer, unassigned) [Example 16-7, 2-(4-(4-(aminomethyl)-1-oxo-1,2-dihydrophthalazin-6-yl)-1-methyl-1H-pyrazol-5-yl)-4-chloro-6-cyclopropoxy-3-fluorobenzonitrile], for which the IC50 in experiment [1] (read-out: In-cell-Western (SYM11) HCT116 MTAP_KO IC50; HCT116 homozygous MTAP knockout cells, 4 days of treatment, SYM11/DRAQ5 ratio) turned out to be 1 µM; in experiment [2] it was 4 µM.

Take `Cn1ncc(-c2ccc3c(=O)[nH]nc(CN)c3c2)c1-c1cn(Cc2ccccc2)nc1C#N` [Example 4-212, 4-(4-(aminomethyl)-1-oxo-1,2-dihydrophthalazin-6-yl)-1′-benzyl-2-methyl-1′H,2H-[3,4′-bipyrazole]-3′-carbonitrile]: the IC50 is greater than 10 µM in experiment [1] (setting [3]) and greater than 10 µM in experiment [2] (Homo sapiens, HCT-116, 240 h).

As for `Cn1ncc(-c2ccc3c(=O)[nH]nc(CN)c3c2)c1-c1cn(-c2ccccc2)nc1Cl` [Example 4-213, 4-(aminomethyl)-6-(3′-chloro-2-methyl-1′-phenyl-1′H,2H-[3,4′-bipyrazol]-4-yl)phthalazin-1(2H)-one], the IC50 in experiment [1] (setting [3]) turned out to be 0.088 µM; in experiment [2] (Homo sapiens, HCT-116, 240 h), 1.68 µM.

As to `N#Cc1c(-c2sncc2-c2ccc3c(=O)[nH]nc(CN)c3c2)ccc2ccccc12` [Example 4-228, 2-(4-(4-(aminomethyl)-1-oxo-1,2-dihydrophthalazin-6-yl)isothiazol-5-yl)-1-naphthonitrile], the IC50 was greater than 1 µM in experiment [1] (setting [3]) and greater than 10 µM in experiment [2] (Homo sapiens, HCT-116, 240 h).

As to `Cn1ncc(-c2ccc3c(=O)[nH]nc(CN)c3c2)c1-c1ccc2cc(F)ccc2c1C#N` [Example 4-216, 2-(4-(4-(aminomethyl)-1-oxo-1,2-dihydrophthalazin-6-yl)-1-methyl-1H-pyrazol-5-yl)-6-fluoro-1-naphthonitrile], the IC50 in experiment [1] (setting [3]) amounted to 0.083 µM; in experiment [2] (Homo sapiens, HCT-116, 240 h), 0.134 µM.

Regarding `Cn1ncc(-c2ccc3c(=O)[nH]nc([C@H](N)C(F)F)c3c2)c1-c1ccc2ccccc2c1C#N` [Example 9-6, 2-[4-[4-[(1S)-1-amino-2,2-difluoro-ethyl]-1-oxo-2H-phthalazin-6-yl]-2-methyl-pyrazol-3-yl]naphthalene-1-carbonitrile], the IC50 in experiment [1] (setting [3]) is greater than 1 µM; in experiment [2] (Homo sapiens, HCT-116, 240 h), greater than 10 µM.

On to `Cn1ncc(-c2ccc3c(=O)[nH]nc(CN)c3c2)c1-c1c(C(F)F)cc2ccccc2c1C#N` [Example 4-246, 2-(4-(4-(aminomethyl)-1-oxo-1,2-dihydrophthalazin-6-yl)-1-methyl-1H-pyrazol-5-yl)-3-(difluoromethyl)-1-naphthonitrile], for which the IC50 in experiment [1] (setting [3]) is 0.05 µM; in experiment [2] (Homo sapiens, HCT-116, 240 h) it was 0.072 µM.

Take `Cn1ncc(-c2ccc3c(=O)[nH]nc(CN)c3c2)c1-c1cc2ccccc2c(Cl)c1C#N` [Example 4-218, 3-(4-(4-(aminomethyl)-1-oxo-1,2-dihydrophthalazin-6-yl)-1-methyl-1H-pyrazol-5-yl)-1-chloro-2-naphthonitrile]: the IC50 in experiment [1] (setting [3]) is 0.14 µM; in experiment [2] (Homo sapiens, HCT-116, 240 h), 0.134 µM.

Turning to `Cn1ncc(-c2ccc3c(=O)[nH]nc(CN)c3c2)c1-c1cc2ccccn2c1C#N` [Example 4-227, 2-(4-(4-(aminomethyl)-1-oxo-1,2-dihydrophthalazin-6-yl)-1-methyl-1H-pyrazol-5-yl)indolizine-3-carbonitrile], the IC50 in experiment [1] (setting [3]) was greater than 1 µM; in experiment [2] (Homo sapiens, HCT-116, 240 h), 2.37 µM.
